Source: patent US20060154942A1, “Quinazolinone derivatives useful as anti-hyperalgesic agents” (priority 2002, published 2006)

## CC(C)c1cc2nc(N)[nH]c(=O)c2cc1-c1ccc(Cl)cc1 [Example 59, 2-Amino-6-(4-chlorophenyl)-7-isopropyl-3H-quinazolin-4-one]
  melting point: 326 to 330 °C
